Assay results from patent US20120142550A1, “Vanin 1 as a Peripheral Blood Oxidative Stress Sensor” (priority 2010, published 2012).

Tested on: PBMC
Experiment: GSH/GSSG ratio by LC-MS/MS in treated PBMC samples
Format: cell-based, human
Details: 4 PBMC samples, 12 hours
Method: The levels of glutathione (GSH, reduced form) and glutathione disulfide (GSSG, oxidized form) in the whole blood of each subject were determined using a liquid chromatography-tandem mass spectrometry (LC-MS/MS)-based procedure modified from that of Norris et al. (J Chromatogr B Biomed Sci Appl. 2001; 762 (I):17-23) In brief, whole blood was mixed in a 1:4 (v:v) ratio with solution containing n-ethylmaleimide (NEM), sulfosalicylic acid, EDTA and methanol. Supernatants were diluted with stable-isotope internal standards (GSH-^13C, ^15N-NEM and GSSG-^13C, ^15N) and analyzed by LC-MS/MS, using an API 3000 Tandem Mass Spectrometer with Turbulon Ion Spray source, Shimadzu solvent delivery system and LEAP Technology autosampler. GSH (as GSH-NEM) and GSSG were monitored by transitions m/z 433→304 and m/z […] respectively, and data was acquired using Analyst 1.4.
Significance analysis of microarrays (SAM) was conducted for analysis of microarray data to identify differentially expressed genes. The Mann-Whitney test was used in the analysis of real-time PCR validation data. Unpaired t-test was conducted for the comparison of glutathione levels in ITP patients and controls. Paired t-test was carried out for the analysis of differences in GSH/GSSG ratios in cells with or without LPS or sodium arsenite treatments. […]

| Molecule | GSH/GSSG ratio compared with untreated cells (sodium arsenite 5 μM, p=0.01) | GSH/GSSG ratio compared with untreated cells (LPS 10 ng/ml, p=0.04) |
| --- | --- | --- |
| O=[As]O [sodium arsenite] | statistically significant decrease |  |
| Lipopolysaccharide [LPS] |  | statistically significant decrease |
